The supplement of paper PMC10307832

Experiments:
Experiment in all cases: relative viability (nuclei count vs DMSO), 5 days (fraction); higher = more cells survive
AZD6482 + OSI-027 = compound: Cc1cc([C@@H](C)Nc2ccccc2C(=O)O)c2nc(N3CCOCC3)cc(=O)n2c1 [AZD6482] + COc1cccc2cc(-c3nc([C@H]4CC[C@H](C(=O)O)CC4)n4ncnc(N)c34)[nH]c12 [OSI-027] (partner 0.5 µM)
Procedure, shortened: (§1)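 A single step with final 0.05% Triton X-100, 1% formaldehyde and 1 ug/ml Hoechst fixed the cells and stained nuclei 5 days after treatment. Lung cancer cell lines in 1536-well plates had been treated by pin tool the day after seeding with one drug alone or a fixed anchor-drug dose plus five library-drug doses (not always all listed) in √10 steps, and nuclei were counted on 4× images. Relative viability is the ratio of nuclei in treated wells to nuclei in vehicle wells, taken as the median of duplicate plates.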

[1] = compound: COc1cc2nc(N3CCCN(C)CC3)nc(NC3CCN(Cc4ccccc4)CC3)c2cc1OC + CS(=O)(=O)CCNCc1ccc(-c2ccc3ncnc(Nc4ccc(OCc5cccc(F)c5)c(Cl)c4)c3c2)o1 [Lapatinib] (partner 2 µM)
Procedure, shortened: as §1

[2] = compound: COc1cc2nc(N3CCCN(C)CC3)nc(NC3CCN(Cc4ccccc4)CC3)c2cc1OC + COc1cc2c(Oc3ccc(NC(=O)C4(C(=O)Nc5ccc(F)cc5)CC4)cc3F)ccnc2cc1OCCCN1CCOCC1 [Foretinib] (partner 0.25 µM)
Procedure, shortened: as §1

AZD6482 + Olaparib = compound: Cc1cc([C@@H](C)Nc2ccccc2C(=O)O)c2nc(N3CCOCC3)cc(=O)n2c1 [AZD6482] + O=C(c1cc(Cc2n[nH]c(=O)c3ccccc23)ccc1F)N1CCN(C(=O)C2CC2)CC1 [Olaparib] (partner 8 µM)
Procedure, shortened: as §1

| Cell Line | relative viability (AZD6482 + OSI-027; first compound 0.08 µM) | relative viability (AZD6482 + OSI-027; first compound 0.253 µM) | relative viability (AZD6482 + OSI-027; first compound 0.8 µM) | relative viability (AZD6482 + OSI-027; first compound 2.53 µM) | relative viability (AZD6482 + OSI-027; first compound 8 µM) | relative viability ([1]; first compound 0.2 µM) | relative viability ([1]; first compound 0.6325 µM) | relative viability ([1]; first compound 2 µM) | relative viability ([1]; first compound 6.325 µM) | relative viability ([2]; first compound 0.2 µM) | relative viability ([2]; first compound 0.6325 µM) | relative viability ([2]; first compound 2 µM) | relative viability ([2]; first compound 6.325 µM) | relative viability (AZD6482 + Olaparib; first compound 0.08 µM) | relative viability (AZD6482 + Olaparib; first compound 0.253 µM) | relative viability (AZD6482 + Olaparib; first compound 0.8 µM) | relative viability (AZD6482 + Olaparib; first compound 2.53 µM) | relative viability (AZD6482 + Olaparib; first compound 8 µM) |
| --- | --- | --- | --- | --- | --- | --- | --- | --- | --- | --- | --- | --- | --- | --- | --- | --- | --- | --- |
| NCI-H1755 | 0.605 | 0.595 | 0.662 | 0.486 | 0.494 | 1.03 | 1.02 | 1.06 | 0.927 | 0.9 | 0.899 | 0.922 | 0.815 | 0.839 | 0.755 | 0.769 | 0.583 | 0.601 |
| NCI-H1793 | 0.266 | 0.243 | 0.261 | 0.132 | 0.16 | 0.75 | 0.742 | 0.855 | 0.664 | 0.591 | 0.882 | 0.848 | 0.701 | 0.559 | 0.413 | 0.502 | 0.306 | 0.406 |
| NCI-H1915 | 0.575 | 0.57 | 0.689 | 0.505 | 0.595 | 1.01 | 0.875 | 1.02 | 0.956 | 1.05 | 1.01 | 1.1 | 1.12 | 0.266 | 0.268 | 0.276 | 0.236 | 0.258 |
| NCI-H1944 | 0.389 | 0.417 | 0.428 | 0.249 | 0.301 | 0.778 | 0.961 | – | 0.762 | 0.882 | 0.867 | 0.862 | 0.807 | 0.399 | 0.443 | 0.428 | 0.337 | 0.388 |
| NCI-H1975 | 0.631 | 0.616 | 0.779 | 0.495 | 0.427 | 0.93 | 0.968 | 1.01 | 0.881 | 0.972 | 0.97 | 1 | 0.955 | 0.661 | 0.832 | 0.964 | 0.648 | 0.624 |
| NCI-H1993 | 0.502 | 0.521 | 0.516 | 0.529 | 0.534 | 0.684 | 0.907 | 0.834 | 0.751 | 0.801 | 0.735 | 0.756 | 0.912 | 0.881 | 0.997 | 0.95 | 0.563 | 0.665 |
| NCI-H2009 | 0.56 | 0.601 | 0.555 | 0.224 | 0.388 | 0.871 | 0.888 | 1.08 | 0.901 | 1.27 | 1.22 | 1.23 | 1.09 | 0.597 | 0.683 | 0.703 | 0.452 | 0.619 |
| NCI-H2023 | 0.398 | 0.336 | 0.341 | 0.237 | 0.245 | 0.87 | 0.836 | 0.961 | 0.115 | 0.943 | 0.834 | 0.834 | 0.455 | 0.496 | 0.457 | 0.43 | 0.353 | 0.379 |
| NCI-H2085 | 0.523 | 0.478 | 0.473 | 0.28 | 0.331 | 0.698 | 0.772 | 0.798 | 0.605 | 0.917 | 0.926 | 0.965 | 0.944 | 0.632 | 0.358 | 0.45 | 0.36 | 0.303 |
| NCI-H2087 | 0.495 | 0.43 | 0.46 | – | 0.332 | 1.18 | 0.744 | 1.08 | 0.964 | 1.12 | 0.99 | 1.31 | 1.25 | 0.578 | 0.587 | 0.523 | 0.345 | 0.519 |
| NCI-H2126 | 0.647 | 0.652 | 0.704 | 0.403 | 0.485 | 0.74 | 0.742 | 0.796 | 0.732 | 1.09 | 1.15 | 1.16 | 1.09 | 0.877 | 0.904 | 0.867 | 0.615 | 0.57 |
| NCI-H2170 | 0.66 | 0.631 | 0.612 | 0.531 | 0.677 | 0.253 | 0.28 | 0.254 | 0.272 | 0.982 | 0.955 | 0.996 | 1.01 | 0.536 | 0.608 | 0.511 | 0.542 | 0.489 |
| NCI-H2228 | – | 0.316 | 0.548 | 0.358 | 0.445 | 0.959 | 1.34 | 1.23 | 0.757 | 1.02 | 0.711 | 0.729 | 0.499 | 0.494 | 0.546 | 0.569 | 0.466 | 0.569 |
| NCI-H2347 | 0.222 | 0.268 | 0.317 | 0.194 | 0.223 | 0.901 | 1.01 | 0.954 | 0.911 | 0.791 | 0.834 | 1.02 | 1 | 0.449 | 0.536 | 0.496 | 0.432 | 0.432 |
| NCI-H2405 | 0.46 | – | 0.595 | 0.369 | 0.336 | 1.08 | 1.08 | 1.2 | 0.885 | 1.05 | 1 | 1.06 | 1.07 | 0.599 | 0.861 | 0.929 | 0.541 | 0.677 |
| NCI-H3122 | 1.01 | 1.01 | 0.89 | – | 0.465 | 1.07 | 1.01 | 1.01 | 1.01 | 0.915 | 1.02 | 0.955 | 0.968 | 0.608 | 0.729 | 0.657 | 0.585 | 0.616 |
| PC-3 [JPC-3] | 0.654 | 0.732 | 0.723 | 0.502 | 0.633 | 0.481 | 0.424 | 0.438 | 0.468 | 1.03 | 1.03 | 1.14 | 0.992 | 1.02 | 1.11 | 1.08 | 0.801 | 1.15 |
| PC-14 | 0.723 | 1.04 | 0.841 | 0.658 | 0.954 | 0.334 | 0.339 | 0.372 | 0.308 | 1.01 | 0.959 | 0.939 | 0.885 | 0.247 | 0.337 | 0.405 | 0.308 | 0.36 |
